Experimental data taken from patent publication US20240238383A1, “ANTI-OXIDANT CONTAINING PARTICLES AND METHODS OF USE” (University of lowa Research Foundation, priority 2021, published 2024).
“Also recorded” adds a separate entry of the source.

Tests used:
cultured FECD CECs = assay: RSL3/erastin-induced ferroptosis assay, cell viability by MTS, cultured FECD CECs; type: cell-based, human
Method: (§1) FIGS. 4A-4C. FECD CECs are more susceptible to ferroptosis than B4G12 control CECs. (A) Basal lipid peroxidation, as measured by C11 BODIPY, is 57% higher in cultured FECD CECs (N=3) than B4G12 cells (N=3). […] Cultured FECD CECs (N=6) also have 4.7-fold more TFR1 mRNA than B4G12 CECs (N=9), normalized to 18S. (C) Cultured FECD CECs (N=3) and B4G12 cells (N=3) were treated with 1 μM RSL3 to induce cell death via Fe-dependent ferroptosis. The cells were also treated with 100 μM of a Fe chelator, deferoxamine (DFO). Cell viability was measured using MTS assays over 8 hours.
FIGS. 5A-5B. FECD-associated ferroptosis is prevented by ubiquinol nanoparticles (NPs) and SOD2 supplementation. […] After incubating another 24 hours (68 hours total), cell viability in each culture was quantified using MTS assays.
(§2) Basal levels of lipid peroxidation and cytosolic Fe are higher in human FECD CECs than control CECs. […] One experiment assessed lipid peroxidation directly. Cultured FECD CECs and control CECs (B4G12 cells) were labeled with BODIPY and intensity was measured using flow cytometry. […] To determine whether Fe trafficking is affected in the context of FECD, TFR1 was quantified, which has been identified as an indicator of ferroptosis (Stockwell et al., 2017; Feng et al., 2020). […]

[1] = tested on: ex vivo human donor CEC tissues; assay: Mitochondrial respiration stress testing (extracellular flux analysis of O2 consumption, Seahorse) of donor CEC tissues stored in Optisol-GS; type: cell-based
Method: FIGS. 3A-3B. Ubiquinol increases mitochondrial function under oxidative stress. (A) Ex vivo human donor CECs stored in corneal storage media (Optisol-GS, Bausch+Lomb) are exposed to 3-fold greater O2 levels than in vivo CECs. Extracellular flux analysis of O2 consumption was performed in transplant-suitable ex vivo human donor CEC tissues stored for 12 days (average) in media supplemented with 10 μM free ubiquinol (dissolved in ethanol at 37° C.) for the last 5 days of storage (N=13) compared to same-donor controls (N=13). […] (B) The presence of αvβ3 on B4G12 CECs (N=3) was confirmed, indicating cRGD NPs will be a suitable delivery system for getting ubiquinol into CECs. FITC-anti-αvβ3 labeled cells were detected and counted by flow cytometry and compared to a FITC-IgG control as well as unlabeled cells. Dashed lines=injections of oligomycin (0), carbonyl cyanide-p-trifluoromethoxy-phenyl-hydrazone (F), antimycin A/rotenone (R/A). Error bars=SEM. ****P<0.0001. SRC, spare respiratory capacity.
Supplementing Optisol-GS with free ubiquinol increases mitochondrial function in donor CECs. Mitochondrial respiration stress testing (extracellular flux analysis of O2 consumption, Seahorse XFe24, Agilent) was performed in transplant-suitable ex vivo human donor CEC tissues stored for 12 days (average) in media supplemented with 10 μm free ubiquinol (dissolved in ethanol at 37 °C) for the last 5 days of storage compared to same-donor ethanol-only controls (N=13 each) (Greiner et al., 2015). […] Although free ubiquinol improved CEC mitochondrial function, ethanol and heat were required to bring it into solution and it was impractical to handle in standard industry conditions. Therefore, ubiquinol can be used to rescue mitochondrial function from storage-related oxidative stress but needs increased delivery. Given the positive impact of ubiquinol treatment on CECs stored at the end of conventional storage (12-14 days), increasing ubiquinol delivery may permit testing for benefit at extended PT (21 days, a 50% increase in PT).

[2] = Optisol-GS at 4° C. over 4 days
Method: Samples of Optisol-GS are collected daily. Concentrations (μg drug/total protein) of ubiquinol and its oxidized form ubiquinone are measured using HPLC. Coenzyme Q9 (CoQ9) is the internal standard.

[3] = cited from earlier work
Col8a2^L450W mice = details: 7 mg/ml in water vs water alone; cited from earlier work
B4G12 CECs = assay: RSL3/erastin-induced ferroptosis / cell death assay, cell viability by MTS, B4G12 CECs; type: cell-based, human
Method: as §1
FIGS. 8A-8B. Nanoparticle targeting and efficacy. […] FITC-anti-αvβ3 labeled cells were detected and counted by flow cytometry and compared to a FITC-IgG control as well as unlabeled cells. […] After incubating another 24 hours (68 hours total), cell viability in each culture was quantified using MTS assays. […]
as §2

[4] = 10 μM free ubiquinol for last 5 days of 12 days (average) storage, vs same-donor controls, N=13

For `COc1c(O)c(C)c(C/C=C(\C)CC/C=C(\C)CC/C=C(\C)CC/C=C(\C)CC/C=C(\C)CC/C=C(\C)CC/C=C(\C)CC/C=C(\C)CC/C=C(\C)CCC=C(C)C)c(O)c1OC` [free ubiquinol, ubiquinol], the “prevention of ferroptosis (cell viability, MTS)” value (cultured FECD CECs; antioxidant at 20 h, 1 μM RSL3 after 24 h, read after another 24 h) was “little efficacy”, the “increase in maximal respiration” value [1, 4] was 93% and the “increase in spare respiratory capacity” value [1, 4] was 174%. For the same molecule, the “mitochondrial respiration / mitochondrial function” value ([1]; free ubiquinol in corneal storage media vs controls) was “enhance mitochondrial function; also recorded: increased mitochondrial respiration compared to controls; also recorded: significantly increased mitochondrial respiration and spare respiratory capacity versus controls”, the ubiquinol remaining [2] was 69.3% and the “solubility in water / aqueous media” value [3] was “practically insoluble in water; also recorded: poorly soluble in aqueous media”.

In the case of `CC(=O)N[C@@H](CS)C(=O)O` [NAC, N-Acetyl-L-cysteine], the “CEC death associated with ER stress and oxidative stress” value (Col8a2^L450W mice) is listed as “prevented CEC death” and the “clinical markers of CEC health” value (Col8a2^L450W mice) is listed as “increase clinical markers of CEC health”.

In the case of `COC(=O)c1ccc([C@@H]2c3[nH]c4ccccc4c3C[C@@H](C(=O)OC)N2C(=O)CCl)cc1` [RSL3], the “sensitivity of cells to induced ferroptosis” value (cultured FECD CECs; cultured FECD CECs) is reported as “sensitive” and the “sensitivity of cells to induced ferroptosis” value (B4G12 CECs) is reported as “sensitive”.
